# Measured values: the NIST ThermoML archive (doi:10.1016/j.jct.2007.11.006)
# Numbers after ± are expanded uncertainties.
# What was measured:
# [1] = Crystal
# [2] = Molar enthalpy of transition or fusion; conditions: Crystal; DSC
# [3] = molar enthalpy of vaporization or sublimation; conditions: 298.15 K; Crystal; Drop sublimation at initial T = 411 K and adjusted to 298.15 K
compound,measurement,setting,value
"COc1cc(O)cc(OC)c1OC [3,4,5-trimethoxyphenol]",mass density,"[1]; 298.1 K, 101.33 kPa, mass of pellet and dimensions",1080 ± 10 kg/m3
same,Normal melting temperature,[1]; DTA,147.02 ± 0.43 °C
same,Molar enthalpy of transition or fusion,[2],7.63 ± 0.645 kcal/mol
same,molar enthalpy,[3],29.9 ± 1.48 kcal/mol
